Reference: patent US20170190726A9, “PRODRUG FOR RELEASE OF CISPLATIN AND CYCLOOXYGENASE INHIBITOR” (priority 2013, published 2017)

How the values were obtained:
[1] = tested on: COX-2 expression in PC3 cells; test: Immunofluorescence analysis of COX-2 expression in PC3 cells; type: cell-based, Human; conditions: TNF-α 20 ng/mL 2 h, then 1 μM test article 2 h
Protocol: Human TNF-α (20 ng/mL) was then added to the cells and incubated for 2 h. […] The cells were then fixed with a 4% paraformaldehyde solution for 30 min at room temperature. […] The coverslips were washed 3 times with H2O and 3 times with PBS. […] After 5 washes with blocking buffer, the cells were mounted on microscope slides with mounting media (20 mM Tris of pH 8.0, 0.5% N-propyl gallate, and 70% glycerol). Images were collected with 500 ms exposure using DAPI and FITC filters. Relative fluorescence units (RFUs) were also analyzed by a plate reader at an excitation wavelength of 488 nm and an emission of 519 nm.

PC3 cells = test: Apoptosis detection by annexin V/PI assay; type: cell-based, Human; conditions: 25 μM, 6 h
Text: High expression of COX-2 is found in various cancers, however, for PCa cell lines as well as tissue, contradictory results exist. We therefore tested anti-proliferative properties of Platin-A on androgen-responsive LNCaP and androgenunresponsive PC3 and DU145 PCa cells that differ in their malignant potentials. […] However, in LNCaP cells, Platin-A activity was better than an equimolar mixture of cisplatin and aspirin. In general, Pt(IV) compounds are less cytotoxic compared to their active Pt(II) form. […] To evaluate whether Platin-A-dependent inhibition of cancer cell proliferation is associated with apoptosis, Alexa Fluor® 488 annexin V/propidium iodide (PI) staining assay was carried out in PC3 cells and the data were analyzed by fluorescence assisted cell sorting. […]
PC3 cells were seeded at a density of 1×10^6 cells/mL on each well of a six well plate and allowed to grow overnight. […] Cell density was determined and cells were resuspended in 1× annexinVbinding buffer to 1×10^6 cells/mL preparing a sufficient volume to have 100 μL per assay. […] After the incubation period, 400 μL of 1× annexin-binding buffer was added to each sample, samples were gently mixed keeping the samples on ice, and the samples were analyzed on the flow cytometer immediately.

IL-10 = test: ELISA of IL-10 in LPS-stimulated RAW 264.7 macrophages; type: cell-based, mouse; conditions: preventive: pretreatment 10 μM 6 h, then LPS 12 h
Text: Chronic inflammation can be important for progression of human cancers, including PCa. Pro-inflammatory cytokines, TNF-α and interleukin (IL)-6, can be important for proliferation, survival, metastasis, and escape from immune surveillance of cancers. Chronic inflammation by activation of toll like receptors (TLRs) on cancer cells creates a tumor micro-environment which impairs the anti-tumor function of the immune system to allow to develop and survive. The cytokines TNF-α and IL-6 are potent activators of NF-κB, a key modulator of inflammation-induced carcinogenesis. Enhanced TNF-α secretion mediates cisplatin nephrotoxicity. The anti-inflammatory cytokine, IL-10 inhibits inflammatory and cytotoxic pathways in cisplatin-induced acute renal injury. […] First, we evaluated the effects of Platin-A, cisplatin, a combination of cisplatin and aspirin, and aspirin on pro-inflammatory cytokines IL-6, TNF-α, and anti-inflammatory IL-10 production in LPS-stimulated RAW 264.7 macrophages. […] To exclude the possibility that the decrease in the cytokines levels was simply due to the cytotoxicity of Platin-A, cell viability was evaluated. […]
RAW 264.7 cells were plated at a concentration of 10,000 cells/mL in 96 plates and allowed to grow overnight. […] The absorbance was recorded at 450 nm using a BioTek Synergy HT well plate reader.

RAW 264.7 macrophages = test: MTT cell viability of LPS activated RAW 264.7 macrophages; type: cell-based, mouse; conditions: 10 μM, 24 h
Protocol: FIG. 16: Cytotoxicity of Platin-A (10 μM), cisplatin (10 μM), aspirin (10 μM), and cisplatin (10 μM)+aspirin (10 μM) on LPS activated RAW 264.7 macrophages with incubation time of 24 h.
The cytotoxic behaviors of cisplatin, aspirin, cisplatin+aspirin, and Platin-A were evaluated using the MTT assay against PC3, DU145, LNCaP, and RAW 264.7 cells. Cells (2000 cells/well for PC3, and DU145 cells; 10000 cells/well for LNCaP and RAW 264.7) were seeded on a 96-well plate in 100 μL of desired medium and incubated for 24 h. The cells were treated with different constructs at varying concentrations and incubated for 72 h at 37° C. except for RAW 264.7 macrophages. An incubation time period of 24 h was used for macrophages. The cells were then treated with 20 μL of MTT (5 mg/mL in PBS) for 5 h. The medium was removed, the cells were lysed with 100 μL of DMSO, and the absorbance of the purple formazan was recorded at 550 nm using a Bio-Tek Synergy HT microplate reader. Each well was performed in triplicate. […] The IC50 values were reported at +95% confidence intervals.

## CC(=O)Oc1ccccc1C(=O)[O][Pt]([NH2])([NH2])([OH])([Cl])[Cl] [Platin-A]
[1]
  COX-2 expression in TNF-α stimulated PC3 cells: levels were reduced
PC3 cells
  apoptosis induction (annexin V/PI): High level of apoptosis was induced
IL-10
  level of IL-10: enhanced level of IL-10
RAW 264.7 macrophages
  cell viability: did not affect cell viability
